This note sets out measurements from patent US20230348442A1, “GALECTIN-3 INHIBITING 2-HYDROXYCYCLOALKANE-1-CARBAMOYL DERIVATIVES” (Idorsia Pharmaceuticals Ltd, priority 2020, published 2023).

Structures are written as SMILES.

In the assay the target is human Gal-3 (hGal-3) (Homo sapiens (Human), UniProt P17931). Briefly: competitive binding assay: binding of biotinylated hGal-3 to microplate-adsorbed asialofetuin (ASF), spectrophotometric. The settings on record: Activity on hGal-3; mean values of several measurements. How it is done: Evaluation of Compound Inhibitory Activity (IC50)
Sequence of human Gal-3 (hGal-3) (P17931 whole entry): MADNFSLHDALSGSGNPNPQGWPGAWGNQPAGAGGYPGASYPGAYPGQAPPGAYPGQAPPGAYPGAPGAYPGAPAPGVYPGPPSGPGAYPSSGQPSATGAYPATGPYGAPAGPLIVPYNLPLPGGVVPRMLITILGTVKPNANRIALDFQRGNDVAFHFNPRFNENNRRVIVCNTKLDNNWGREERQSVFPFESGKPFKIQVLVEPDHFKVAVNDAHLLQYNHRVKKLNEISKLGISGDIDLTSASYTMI
The inhibitory activity of compounds is determined in competitive binding assays. This spectrophotometric assay measures the binding of biotinylated human Gal-3 (hGal-3) or human Gal-1 (hGal-1), respectively, to a microplate-adsorbed glycoprotein, asialofetuin (ASF) (Proc Natl Acad Sci USA. 2013 Mar. 26; 110(13):5052-7.). Alternatively, and preferably, a human Gal-1 version in which all six cysteines are substituted by serines may be used.
Briefly, compounds are serially diluted in DMSO (working dilutions). ASF-coated 384 well plates are supplemented with 22.8 μL/well of biotinylated hGal-3 or hGal-1 in assay buffer (i.e. 300-1000 ng/mL biotinylated hGal-3 or hGal-1) to which 1.2 μL of compound working dilutions are added and mixed.
Plates are incubated for 3 hours at 4° C., then washed with cold assay buffer (3×50 uL), incubated for 1 hour with 25 μL/well of a streptavidin-peroxidase solution (diluted in assay buffer to 80 ng/mL) at 4° C., followed by further washing steps with assay buffer (3×50 uL). Finally, 25 μL/well of ABTS substrate is added.
The calculated IC50 values may fluctuate depending on the daily assay performance. Fluctuations of this kind are known to those skilled in the art. IC50 values from several measurements are given as mean values.
Regarding `CO[C@@H]1[C@@H](n2cc(-c3cc(F)c(F)c(F)c3)nn2)[C@@H](O)[C@@H](CO)O[C@H]1C(=O)N(c1cccc(Cl)c1)[C@H]1CCC[C@@H]1O` [Example 1.1.1, (2R,3R,4S,5R,6R)—N-(3-chlorophenyl)-5-hydroxy-N-((1S,2S)-2-hydroxycyclopentyl)-6-(hydroxymethyl)-3-methoxy-4-(4-(3,4,5-trifluorophenyl)-1H-1,2,3-triazol-1-yl)tetrahydro-2H-pyran-2-carboxamide], the half-inhibitory concentration (IC50) was found to be 36.5 nM.

Compound `CO[C@@H]1[C@@H](n2cc(-c3cc(F)c(F)c(F)c3)nn2)[C@@H](O)[C@@H](CO)O[C@H]1C(=O)N(c1cc(Cl)cc(Cl)c1)[C@H]1CCC[C@@H]1O` [Example 1.1.2, (2R,3R,4S,5R,6R)-N-(3,5-dichlorophenyl)-5-hydroxy-N-((1S,2S)-2-hydroxycyclopentyl)-6-(hydroxymethyl)-3-methoxy-4-(4-(3,4,5-trifluorophenyl)-1H-1,2,3-triazol-1-yl)tetrahydro-2H-pyran-2-carboxamide] came in with an IC50 of 37.4 nM. The result for `CO[C@@H]1[C@@H](n2cc(-c3cc(F)c(F)c(F)c3)nn2)[C@@H](O)[C@@H](CO)O[C@H]1C(=O)N(c1cc(Cl)cc(Cl)c1)[C@@H]1CCC[C@H]1O` [Example 1.1.2R, (2R,3R,4S,5R,6R)-N-(3,5-dichlorophenyl)-5-hydroxy-N-((1R,2R)-2-hydroxycyclopentyl)-6-(hydroxymethyl)-3-methoxy-4-(4-(3,4,5-trifluorophenyl)-1H-1,2,3-triazol-1-yl)tetrahydro-2H-pyran-2-carboxamide] reads 104 nM. Turning to `CO[C@@H]1[C@@H](n2cc(-c3cc(F)c(F)c(F)c3)nn2)[C@@H](O)[C@@H](CO)O[C@H]1C(=O)N(c1cc(C)cc(Cl)c1)[C@H]1CCC[C@@H]1O` [Example 1.1.3, (2R,3R,4S,5R,6R)-N-(3-chloro-5-methylphenyl)-5-hydroxy-N-((1S,2S)-2-hydroxycyclopentyl)-6-(hydroxymethyl)-3-methoxy-4-(4-(3,4,5-trifluorophenyl)-1H-1,2,3-triazol-1-yl)tetrahydro-2H-pyran-2-carboxamide], the IC50 is 34.8 nM. The result for `CO[C@@H]1[C@@H](n2cc(-c3cc(F)c(F)c(F)c3)nn2)[C@@H](O)[C@@H](CO)O[C@H]1C(=O)N(c1cc(Cl)cc(C#N)c1)[C@H]1CCC[C@@H]1O` [Example 1.1.4, (2R,3R,4S,5R,6R)-N-(3-chloro-5-cyanophenyl)-5-hydroxy-N-((1S,2S)-2-hydroxycyclopentyl)-6-(hydroxymethyl)-3-methoxy-4-(4-(3,4,5-trifluorophenyl)-1H-1,2,3-triazol-1-yl)tetrahydro-2H-pyran-2-carboxamide] reads 27.3 nM. In the case of `CO[C@@H]1[C@@H](n2cc(-c3cc(F)c(F)c(F)c3)nn2)[C@@H](O)[C@@H](CO)O[C@H]1C(=O)N(c1cc(Br)cc(C#N)c1)[C@H]1CCC[C@@H]1O` [Example 1.1.5, (2R,3R,4S,5R,6R)-N-(3-bromo-5-cyanophenyl)-5-hydroxy-N-((1S,2S)-2-hydroxycyclopentyl)-6-(hydroxymethyl)-3-methoxy-4-(4-(3,4,5-trifluorophenyl)-1H-1,2,3-triazol-1-yl)tetrahydro-2H-pyran-2-carboxamide], the IC50 is 23 nM. The result for `CO[C@@H]1[C@@H](n2cc(-c3cc(F)c(F)c(F)c3)nn2)[C@@H](O)[C@@H](CO)O[C@H]1C(=O)N(c1cc(Br)cc(C#N)c1)[C@@H]1CCC[C@H]1O` [Example 1.1.5R, (2R,3R,4S,5R,6R)-N-(3-bromo-5-cyanophenyl)-5-hydroxy-N-((1R,2R)-2-hydroxycyclopentyl)-6-(hydroxymethyl)-3-methoxy-4-(4-(3,4,5-trifluorophenyl)-1H-1,2,3-triazol-1-yl)tetrahydro-2H-pyran-2-carboxamide] reads 98.8 nM; that for `CO[C@@H]1[C@@H](n2cc(-c3cc(F)c(F)c(F)c3)nn2)[C@@H](O)[C@@H](CO)O[C@H]1C(=O)N(c1cccc(I)c1)[C@H]1CCC[C@@H]1O` [Example 1.1.6, (2R,3R,4S,5R,6R)-5-hydroxy-N-((1S,2S)-2-hydroxycyclopentyl)-6-(hydroxymethyl)-N-(3-iodophenyl)-3-methoxy-4-(4-(3,4,5-trifluorophenyl)-1H-1,2,3-triazol-1-yl)tetrahydro-2H-pyran-2-carboxamide], 42.4 nM; that for `CO[C@@H]1[C@@H](n2cc(-c3cc(F)c(F)c(F)c3)nn2)[C@@H](O)[C@@H](CO)O[C@H]1C(=O)N(c1cccc(I)c1)[C@@H]1CCC[C@H]1O` [Example 1.1.6R, (2R,3R,4S,5R,6R)-5-hydroxy-N-((1R,2R)-2-hydroxycyclopentyl)-6-(hydroxymethyl)-N-(3-iodophenyl)-3-methoxy-4-(4-(3,4,5-trifluorophenyl)-1H-1,2,3-triazol-1-yl)tetrahydro-2H-pyran-2-carboxamide], 261 nM. `CO[C@@H]1[C@@H](n2cc(-c3cc(F)c(F)c(F)c3)nn2)[C@@H](O)[C@@H](CO)O[C@H]1C(=O)N(c1cccc(Br)c1)[C@H]1CCC[C@@H]1O` [Example 1.1.10, (2R,3R,4S,5R,6R)-N-(3-bromophenyl)-5-hydroxy-N-((1S,2S)-2-hydroxycyclopentyl)-6-(hydroxymethyl)-3-methoxy-4-(4-(3,4,5-trifluorophenyl)-1H-1,2,3-triazol-1-yl)tetrahydro-2H-pyran-2-carboxamide] had an IC50 of 78.8 nM. The result for `CO[C@@H]1[C@@H](n2cc(-c3cc(F)c(F)c(F)c3)nn2)[C@@H](O)[C@@H](CO)O[C@H]1C(=O)N(c1cccc(Br)c1)[C@@H]1CCC[C@H]1O` [Example 1.1.10R, (2R,3R,4S,5R,6R)-N-(3-bromophenyl)-5-hydroxy-N-((1R,2R)-2-hydroxycyclopentyl)-6-(hydroxymethyl)-3-methoxy-4-(4-(3,4,5-trifluorophenyl)-1H-1,2,3-triazol-1-yl)tetrahydro-2H-pyran-2-carboxamide] reads 376 nM; that for `CO[C@@H]1[C@@H](n2cc(-c3cc(F)c(F)c(F)c3)nn2)[C@@H](O)[C@@H](CO)O[C@H]1C(=O)N(c1cc(Br)cc(Br)c1)[C@H]1CCC[C@@H]1O` [Example 1.1.11, (2R,3R,4S,5R,6R)-N-(3,5-dibromophenyl)-5-hydroxy-N-((1S,2S)-2-hydroxycyclopentyl)-6-(hydroxymethyl)-3-methoxy-4-(4-(3,4,5-trifluorophenyl)-1H-1,2,3-triazol-1-yl)tetrahydro-2H-pyran-2-carboxamide], 31 nM.

For the compound `CO[C@@H]1[C@@H](n2cc(-c3cc(F)c(F)c(F)c3)nn2)[C@@H](O)[C@@H](CO)O[C@H]1C(=O)N(c1cc(Br)cc(Br)c1)[C@@H]1CCC[C@H]1O` [Example 1.1.11R, (2R,3R,4S,5R,6R)-N-(3,5-dibromophenyl)-5-hydroxy-N-((1R,2R)-2-hydroxycyclopentyl)-6-(hydroxymethyl)-3-methoxy-4-(4-(3,4,5-trifluorophenyl)-1H-1,2,3-triazol-1-yl)tetrahydro-2H-pyran-2-carboxamide], the IC50 came to 390 nM.

For the compound `CO[C@@H]1[C@@H](n2cc(-c3cc(F)c(F)c(F)c3)nn2)[C@@H](O)[C@@H](CO)O[C@H]1C(=O)N(c1cc(C)cc(Br)c1)[C@H]1CCC[C@@H]1O` [Example 1.1.12, (2R,3R,4S,5R,6R)-N-(3-bromo-5-methylphenyl)-5-hydroxy-N-((1S,2S)-2-hydroxycyclopentyl)-6-(hydroxymethyl)-3-methoxy-4-(4-(3,4,5-trifluorophenyl)-1H-1,2,3-triazol-1-yl)tetrahydro-2H-pyran-2-carboxamide], the IC50 came to 34.7 nM.

In turn, `CO[C@@H]1[C@@H](n2cc(-c3cc(F)c(F)c(F)c3)nn2)[C@@H](O)[C@@H](CO)O[C@H]1C(=O)N(c1cc(C)cc(Br)c1)[C@@H]1CCC[C@H]1O` [Example 1.1.12R, (2R,3R,4S,5R,6R)-N-(3-bromo-5-methylphenyl)-5-hydroxy-N-((1R,2R)-2-hydroxycyclopentyl)-6-(hydroxymethyl)-3-methoxy-4-(4-(3,4,5-trifluorophenyl)-1H-1,2,3-triazol-1-yl)tetrahydro-2H-pyran-2-carboxamide] returned an IC50 of 348 nM. The result for `CO[C@@H]1[C@@H](n2cc(-c3cc(F)cc(F)c3)nn2)[C@@H](O)[C@@H](CO)O[C@H]1C(=O)N(c1cc(Br)cc(C#N)c1)[C@H]1CCC[C@@H]1O` [Example 1.2.5, (2R,3R,4S,5R,6R)-N-(3-bromo-5-cyanophenyl)-4-(4-(3,5-difluorophenyl)-1H-1,2,3-triazol-1-yl)-5-hydroxy-N-((1S,2S)-2-hydroxycyclopentyl)-6-(hydroxymethyl)-3-methoxytetrahydro-2H-pyran-2-carboxamide] reads 146 nM; that for `CO[C@@H]1[C@@H](n2cc(-c3cc(F)cc(F)c3)nn2)[C@@H](O)[C@@H](CO)O[C@H]1C(=O)N(c1cc(Br)cc(C#N)c1)[C@@H]1CCC[C@H]1O` [Example 1.2.5R, (2R,3R,4S,5R,6R)-N-(3-bromo-5-cyanophenyl)-4-(4-(3,5-difluorophenyl)-1H-1,2,3-triazol-1-yl)-5-hydroxy-N-((1R,2R)-2-hydroxycyclopentyl)-6-(hydroxymethyl)-3-methoxytetrahydro-2H-pyran-2-carboxamide], 450 nM.
